Results: PubChem BioAssay (NCI)
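Compound exposure: 48 hours, 5 concentrations, 96-well plates. GI50 marks 50% less growth. The concentration for full growth arrest is given as TGI.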

Experiments:
Experiment in all cases: NCI-60 cell line screen, 48 h
EKVX NSCLC = test system: EKVX NSCLC
UACC-257 melanoma = test system: UACC-257 melanoma
UO-31 renal = test system: UO-31 renal
NCI-H23 lung = test system: NCI-H23 lung
SK-MEL-28 melanoma = test system: SK-MEL-28 melanoma
MCF7 breast = test system: MCF7 breast
SK-OV-3 ovarian = test system: SK-OV-3 ovarian
OVCAR-3 ovarian = test system: OVCAR-3 ovarian
SW-620 colon = test system: SW-620 colon
DU-145 prostate = test system: DU-145 prostate
NCI-H460 lung = test system: NCI-H460 lung
COLO 205 colon = test system: COLO 205 colon
UACC-62 melanoma = test system: UACC-62 melanoma
T-47D breast = test system: T-47D breast
A549 NSCLC = test system: A549 NSCLC
HOP-92 NSCLC = test system: HOP-92 NSCLC
SNB-19 CNS = test system: SNB-19 CNS
OVCAR-8 ovarian = test system: OVCAR-8 ovarian
SF-539 CNS = test system: SF-539 CNS
MOLT-4 leukemia = test system: MOLT-4 leukemia
SK-MEL-2 melanoma = test system: SK-MEL-2 melanoma
SF-268 CNS = test system: SF-268 CNS
TK-10 renal = test system: TK-10 renal
HT29 colon = test system: HT29 colon
ACHN renal = test system: ACHN renal
HOP-62 NSCLC = test system: HOP-62 NSCLC
HCT-116 colon = test system: HCT-116 colon
PC-3 prostate = test system: PC-3 prostate
LOX IMVI melanoma = test system: LOX IMVI melanoma
MDA-MB-231 breast = test system: MDA-MB-231 breast
A498 renal = test system: A498 renal
NCI-H522 lung = test system: NCI-H522 lung
MDA-MB-435 = test system: MDA-MB-435
IGROV1 ovarian = test system: IGROV1 ovarian
OVCAR-4 ovarian = test system: OVCAR-4 ovarian
U251 CNS = test system: U251 CNS
MALME-3M melanoma = test system: MALME-3M melanoma
KM12 colon = test system: KM12 colon
SN12C renal = test system: SN12C renal
BT-549 breast = test system: BT-549 breast
CAKI-1 renal = test system: CAKI-1 renal
HL-60(TB) leukemia = test system: HL-60(TB) leukemia
SK-MEL-5 melanoma = test system: SK-MEL-5 melanoma
NCI-H226 lung = test system: NCI-H226 lung
NCI/ADR-RES ovarian = test system: NCI/ADR-RES ovarian
RXF 393 renal = test system: RXF 393 renal
786-0 renal = test system: 786-0 renal
M14 melanoma = test system: M14 melanoma
OVCAR-5 ovarian = test system: OVCAR-5 ovarian
SNB-75 CNS = test system: SNB-75 CNS
CCRF-CEM leukemia = test system: CCRF-CEM leukemia
HCT-15 colon = test system: HCT-15 colon
HCC-2998 colon = test system: HCC-2998 colon
HS 578T breast = test system: HS 578T breast
K-562 leukemia = test system: K-562 leukemia
RPMI-8226 leukemia = test system: RPMI-8226 leukemia

## O=c1c2c3c(sc2n2c(CCl)nnc2n1Cc1ccccc1)CCCC3
EKVX NSCLC
  GI50: 7.96 µM
  TGI: 27.9 µM
UACC-257 melanoma
  GI50: 2.12 µM
  TGI: 4.29 µM
UO-31 renal
  GI50: 1.51 µM
  TGI: 2.88 µM
NCI-H23 lung
  GI50: 2.27 µM
  TGI: 8.43 µM
SK-MEL-28 melanoma
  GI50: 1.7 µM
  TGI: 3.16 µM
MCF7 breast
  GI50: 1.75 µM
  TGI: 4.54 µM
SK-OV-3 ovarian
  GI50: 13.4 µM
  TGI: 48.8 µM
OVCAR-3 ovarian
  GI50: 1.76 µM
  TGI: 3.21 µM
SW-620 colon
  GI50: 1.76 µM
  TGI: 3.51 µM
DU-145 prostate
  GI50: 2.45 µM
  TGI: 6.18 µM
NCI-H460 lung
  GI50: 2.58 µM
  TGI: 7.98 µM
COLO 205 colon
  GI50: 1.94 µM
  TGI: 4.05 µM
UACC-62 melanoma
  GI50: 1.99 µM
  TGI: 5.64 µM
T-47D breast
  GI50: 2.5 µM
  TGI: 6.5 µM
A549 NSCLC
  GI50: 2.79 µM
  TGI: 7.3 µM
HOP-92 NSCLC
  GI50: 1.83 µM
  TGI: 3.8 µM
SNB-19 CNS
  GI50: 15.8 µM
  TGI: 32.1 µM
OVCAR-8 ovarian
  GI50: 2.28 µM
  TGI: 6.19 µM
SF-539 CNS
  GI50: 3.24 µM
  TGI: 10.1 µM
MOLT-4 leukemia
  GI50: 3.62 µM
  TGI: 17.1 µM
SK-MEL-2 melanoma
  GI50: 1.53 µM
  TGI: 2.98 µM
SF-268 CNS
  GI50: 1.83 µM
  TGI: 3.72 µM
TK-10 renal
  GI50: 5.25 µM
  TGI: 10.7 µM
HT29 colon
  GI50: 1.95 µM
  TGI: 4.05 µM
ACHN renal
  GI50: 1.6 µM
  TGI: 2.96 µM
HOP-62 NSCLC
  GI50: 3.55 µM
  TGI: 7.87 µM
HCT-116 colon
  GI50: 1.51 µM
  TGI: 3.13 µM
PC-3 prostate
  GI50: 1.85 µM
  TGI: 4.01 µM
LOX IMVI melanoma
  GI50: 0.284 µM
  TGI: 1.32 µM
MDA-MB-231 breast
  GI50: 2.22 µM
  TGI: 5.23 µM
A498 renal
  GI50: 9.17 µM
  TGI: 23.1 µM
NCI-H522 lung
  GI50: 1.89 µM
  TGI: 4.17 µM
MDA-MB-435
  GI50: 3.4 µM
  TGI: 11 µM
IGROV1 ovarian
  GI50: 0.0645 µM
  TGI: 1.53 µM
OVCAR-4 ovarian
  GI50: 2.79 µM
  TGI: 7.74 µM
U251 CNS
  GI50: 1.6 µM
  TGI: 3.03 µM
MALME-3M melanoma
  GI50: 3.48 µM
  TGI: 10.7 µM
KM12 colon
  GI50: 2.39 µM
  TGI: 6.05 µM
SN12C renal
  GI50: 1.62 µM
  TGI: 3.86 µM
BT-549 breast
  GI50: 2.41 µM
  TGI: 9.44 µM
CAKI-1 renal
  GI50: 2.9 µM
  TGI: 7.79 µM
HL-60(TB) leukemia
  GI50: 2.16 µM
  TGI: > 19.8 µM
SK-MEL-5 melanoma
  GI50: 2.94 µM
  TGI: 7.62 µM
NCI-H226 lung
  GI50: 1.74 µM
  TGI: 4.37 µM
NCI/ADR-RES ovarian
  GI50: 3.84 µM
  TGI: > 51.1 µM
RXF 393 renal
  GI50: 1.98 µM
  TGI: 4.17 µM
786-0 renal
  GI50: 2.01 µM
  TGI: 3.75 µM
M14 melanoma
  GI50: 1.79 µM
  TGI: 5.43 µM
OVCAR-5 ovarian
  GI50: 2.34 µM
  TGI: 5.23 µM
SNB-75 CNS
  GI50: 4.51 µM
  TGI: 9.03 µM
CCRF-CEM leukemia
  GI50: 0.434 µM
HCT-15 colon
  GI50: 1.86 µM
  TGI: 5.34 µM
HCC-2998 colon
  GI50: 1.74 µM
  TGI: 3.39 µM
HS 578T breast
  GI50: 1.92 µM
  TGI: 5.9 µM
K-562 leukemia
  GI50: 2.33 µM
  TGI: 5.39 µM
RPMI-8226 leukemia
  GI50: 1.97 µM
  TGI: 5.05 µM
